We go through five molecules from PubChem BioAssay AID1259407 (Chemical Carcinogenesis Research Information System (CCRIS), 2018).

The structures appear in SMILES notation. Calls of active or inactive are those of the source. How the calls were made is not given here.

This series relates to CCRIS mutagenicity, Ames/micronucleus/aberration tests. The series can be described thus: CCRIS mutagenicity studies.
Setting [1] is: Test System: AMES SALMONELLA TYPHIMURIUM, Strain/Indicator: TA98, Metabolic Activation: HAMSTER, LIVER, S-9, AROCLOR 1254 (10%), Method: PREINCUBATION
Setting [2] is: Test System: AMES SALMONELLA TYPHIMURIUM, Strain/Indicator: TA98, Metabolic Activation: NONE, Method: PREINCUBATION
[3] abbreviates: Test System: AMES SALMONELLA TYPHIMURIUM, Strain/Indicator: TA98, Metabolic Activation: RAT, LIVER, S-9, AROCLOR 1254 (10%), Method: PREINCUBATION
Setting [4] is: Test System: AMES SALMONELLA TYPHIMURIUM, Strain/Indicator: TA100, Metabolic Activation: HAMSTER, LIVER, S-9, AROCLOR 1254 (10%), Method: PREINCUBATION
The mark [5] stands for this setting: Test System: AMES SALMONELLA TYPHIMURIUM, Strain/Indicator: TA100, Metabolic Activation: NONE, Method: PREINCUBATION
Setting [6] is: Test System: AMES SALMONELLA TYPHIMURIUM, Strain/Indicator: TA100, Metabolic Activation: RAT, LIVER, S-9, AROCLOR 1254 (10%), Method: PREINCUBATION
Setting [7] is: Test System: AMES SALMONELLA TYPHIMURIUM, Strain/Indicator: TA1535, Metabolic Activation: HAMSTER, LIVER, S-9, AROCLOR 1254 (10%), Method: PREINCUBATION
Setting [8] is: Test System: AMES SALMONELLA TYPHIMURIUM, Strain/Indicator: TA1535, Metabolic Activation: NONE, Method: PREINCUBATION
Where [9] appears, read: Test System: AMES SALMONELLA TYPHIMURIUM, Strain/Indicator: TA1535, Metabolic Activation: RAT, LIVER, S-9, AROCLOR 1254 (10%), Method: PREINCUBATION

With `C[CH2][Pb]([Cl])([CH2]C)[CH2]C`, the mutagenic call runs as follows: under setting [1], “inactive; negative”; under setting [2], “inactive; negative”; under setting [3], “inactive; negative”; under setting [4], “inactive; negative”; under setting [5], “inactive; negative”; under setting [6], “inactive; negative”. In addition, the mutagenic call by setting is: under setting [7], “inactive; negative”; under setting [8], “inactive; negative”; under setting [9], “inactive; negative”; (Test System: AMES SALMONELLA TYPHIMURIUM, Strain/Indicator: TA1537, Metabolic Activation: HAMSTER, LIVER, S-9, AROCLOR 1254 (10%), Method: PREINCUBATION) “inactive; negative”; (Test System: AMES SALMONELLA TYPHIMURIUM, Strain/Indicator: TA1537, Metabolic Activation: NONE, Method: PREINCUBATION) “inactive; negative”; (Test System: AMES SALMONELLA TYPHIMURIUM, Strain/Indicator: TA1537, Metabolic Activation: RAT, LIVER, S-9, AROCLOR 1254 (10%), Method: PREINCUBATION) “inactive; negative”.
Consider `[Ga]#[As]`, for which the mutagenic call reads like this: (Test System: AMES SALMONELLA TYPHIMURIUM, Strain/Indicator: TA97, Metabolic Activation: HAMSTER, LIVER, S-9, AROCLOR 1254 (10 OR 30%), Method: PREINCUBATION) “inactive; negative”; (Test System: AMES SALMONELLA TYPHIMURIUM, Strain/Indicator: TA97, Metabolic Activation: NONE, Method: PREINCUBATION) “inactive; negative”; (Test System: AMES SALMONELLA TYPHIMURIUM, Strain/Indicator: TA97, Metabolic Activation: RAT, LIVER, S-9, AROCLOR 1254 (10 OR 30%), Method: PREINCUBATION) “inactive; negative”; under setting [1], “inactive; negative”; (Test System: AMES SALMONELLA TYPHIMURIUM, Strain/Indicator: TA98, Metabolic Activation: HAMSTER, LIVER, S-9, AROCLOR 1254 (30%), Method: PREINCUBATION) “inactive; negative”; under setting [2], “inactive; negative”. Further, the mutagenic call is, setting by setting: under setting [3], “inactive; negative”; (Test System: AMES SALMONELLA TYPHIMURIUM, Strain/Indicator: TA98, Metabolic Activation: RAT, LIVER, S-9, AROCLOR 1254 (30%), Method: PREINCUBATION) “inactive; negative”; under setting [4], “inactive; negative”; (Test System: AMES SALMONELLA TYPHIMURIUM, Strain/Indicator: TA100, Metabolic Activation: HAMSTER, LIVER, S-9, AROCLOR 1254 (30%), Method: PREINCUBATION) “inactive; negative”; under setting [5], “inactive; negative”; under setting [6], “inactive; negative”. The mutagenic call (Test System: AMES SALMONELLA TYPHIMURIUM, Strain/Indicator: TA100, Metabolic Activation: RAT, LIVER, S-9, AROCLOR 1254 (30%), Method: PREINCUBATION) is “inactive; negative”; the mutagenic call (Test System: AMES SALMONELLA TYPHIMURIUM, Strain/Indicator: TA102, Metabolic Activation: HAMSTER, LIVER, S-9, AROCLOR 1254 (5 OR 10%), Method: PREINCUBATION) was “inactive; negative”; the mutagenic call (Test System: AMES SALMONELLA TYPHIMURIUM, Strain/Indicator: TA102, Metabolic Activation: HAMSTER, LIVER, S-9, AROCLOR 1254 (30%), Method: PREINCUBATION) is “inactive; negative”; the mutagenic call (Test System: AMES SALMONELLA TYPHIMURIUM, Strain/Indicator: TA102, Metabolic Activation: NONE, Method: PREINCUBATION) is “inactive; negative”; the mutagenic call (Test System: AMES SALMONELLA TYPHIMURIUM, Strain/Indicator: TA102, Metabolic Activation: RAT, LIVER, S-9, AROCLOR 1254 (10%), Method: PREINCUBATION) was “inactive; negative”; the mutagenic call (Test System: AMES SALMONELLA TYPHIMURIUM, Strain/Indicator: TA102, Metabolic Activation: RAT, LIVER, S-9, AROCLOR 1254 (30%), Method: PREINCUBATION) is “inactive; negative”. Also, the mutagenic call is, setting by setting: under setting [7], “inactive; negative”; (Test System: AMES SALMONELLA TYPHIMURIUM, Strain/Indicator: TA1535, Metabolic Activation: HAMSTER, LIVER, S-9, AROCLOR 1254 (30%), Method: PREINCUBATION) “inactive; negative”; under setting [8], “inactive; negative”; under setting [9], “inactive; negative”; (Test System: AMES SALMONELLA TYPHIMURIUM, Strain/Indicator: TA1535, Metabolic Activation: RAT, LIVER, S-9, AROCLOR 1254 (30%), Method: PREINCUBATION) “inactive; negative”.
As for `CC[C@@]1(O)C[C@H](O[C@H]2C[C@H](N(C)C)[C@H](O)[C@H](C)O2)c2c(cc3c(c2O)C(=O)c2c(O)cccc2C3=O)[C@H]1C(=O)OC`, the mutagenic call by setting is: (Test System: AMES SALMONELLA TYPHIMURIUM, Strain/Indicator: TA102, Metabolic Activation: NONE, Method: STANDARD PLATE) “active; positive”; (Test System: AMES SALMONELLA TYPHIMURIUM, Strain/Indicator: TA104, Metabolic Activation: NONE, Method: STANDARD PLATE) “active; positive”.
As to `[N-]=[N+]=NCCC(N)C(=O)O` (centres undefined), the mutagenic call (Test System: AMES SALMONELLA TYPHIMURIUM, Strain/Indicator: TA1530, Metabolic Activation: NONE, Method: STANDARD PLATE) is “active; positive”.
Turning to `O=C1c2ccccc2-c2ccc([N+](=O)[O-])c3cccc1c23`, the mutagenic call runs as follows: (End Point: IN VITRO MICRONUCLEUS, Test System: HUMAN B-LYMPHOBLASTOID CELLS (MCL-5), Metabolic Activation: NONE) “active; positive”; (End Point: In vivo micronucleus, Test System: lacZ mutant frequency in liver, lung, and bone marrow cells, Species: Mouse, Strain/Sex: Big Blue (BALB/c x DBA2)/Male, Route: Oral) “active; positive in liver and bone marrow”; (Test System: Human lymphoblastoid cells, Strain/Indicator: MCL-5 (HPRT)/6-Thioguanine, Metabolic Activation: None, Method: Well plates) “active; positive”; (Test System: Human lymphoblastoid cells, Strain/Indicator: MCL-5 (tk+/tk-)/Trifluorothymidine, Metabolic Activation: None, Method: Well plates) “active; positive”; (Test System: Human lymphoblastoid cells, Strain/Indicator: h1A1v2 (HPRT)/6-Thioguanine, Metabolic Activation: None, Method: Well plates) “active; positive”; (Test System: Human lymphoblastoid cells, Strain/Indicator: h1A1v2 (tk+/tk-)/Trifluorothymidine, Metabolic Activation: None, Method: Well plates) “active; positive”.
